{
  "source": "patent EP0007716A1",
  "about": "“R-N-(2-phenyl-2-hydroxyethyl)-3-phenylpropyl amines, their formulations, use and preparation” (ELI LILLY AND COMPANY, priority 1978, dated 1980)",
  "tested_on": "dogs with induced myocardial infarction",
  "assay": "Inotropic potency on intravenous administration to dogs with induced myocardial infarction",
  "type": "in vivo",
  "conditions": "for ED50: Canis lupus familiaris, dose required to effect a fifty percent increase in contractility, four dogs with induced myocardial infarction, read-out: Contractile potency (mcg./kg.)ED50; for Blood pressure change (mm/Hg)ED50: change in blood pressure attributable to the drug at the ED50 dose; for Blood pressure change (mm/Hg)ED50 / Heart rate increase (beats/min.)ED50: dogs with induced myocardial infarction; for Heart rate increase (beats/min.)ED50: increase in heart rate observed at the ED50 dose",
  "experimental": "The compounds provided by this invention have been evaluated for their inotropic potency in anesthetized dogs and in conscious dogs with implanted cardiovascular transducers. The heart rate, cardiac output, systolic pressure and the derivative of the left ventricular pressure, which is the index of cardiac contractility, were measured.\nColumn 1 lists the compounds evaluated according to the test. Each of the compounds evaluated was administered intravenously to four dogs with induced myocardial infarction. Column 2 records the contractile potency of each compound as the dose in mcg./kg. of body weight required to effect a fifty percent increase in contractility (ED50). Column 3 presents the increase in heart rate observed at the EDSO dose. Column 4 records the change in blood pressure attributable to the administered drug.",
  "data": [
    {"smiles": "Oc1cccc(CCCNC[C@H](O)c2cccc(O)c2)c1", "note": "[R-N-[2-(3-Hydroxyphenyl)-2-hydroxyethyl]-3-(3-hydroxyphenyl)propylamine]", "values": [
      {"measurement": "ED50", "value": 1, "unit": "µg/kg"},
      {"measurement": "Blood pressure change (mm/Hg)ED50", "value": "+7 mm/Hg"},
      {"measurement": "Heart rate increase (beats/min.)ED50", "value": 14, "unit": "beats/min."}
    ]},
    {"smiles": "Oc1ccc([C@@H](O)CNCCCc2cccc(O)c2)cc1", "note": "[R-N-[2-(4-hydroxyphenyl)-2-hydroxyethyl]-3-(3-hydroxyphenyl)propylamine]", "values": [
      {"measurement": "ED50", "value": 1, "unit": "µg/kg"},
      {"measurement": "Blood pressure change (mm/Hg)ED50", "value": -4, "unit": "mm/Hg"},
      {"measurement": "Heart rate increase (beats/min.)ED50", "value": 16, "unit": "beats/min."}
    ]},
    {"smiles": "Oc1ccc(CCCNC[C@H](O)c2ccc(O)cc2)cc1", "note": "[R-N-[2-(4-hydroxyphenyl)-2-hydroxyethyl]-3-(4-hydroxy-phenyl)propylamine]", "values": [
      {"measurement": "ED50", "value": 4, "unit": "µg/kg"},
      {"measurement": "Blood pressure change (mm/Hg)ED50", "value": "+4 mm/Hg"},
      {"measurement": "Heart rate increase (beats/min.)ED50", "value": 10, "unit": "beats/min."}
    ]},
    {"smiles": "Oc1ccc(CCCNC[C@H](O)c2cccc(O)c2)cc1", "note": "[R-N-[2-(3-hydroxyphenyl)-2-hydroxyethyl]-3-(4-hydroxyphenyl)propylamine]", "values": [
      {"measurement": "ED50", "value": 5, "unit": "µg/kg"},
      {"measurement": "Blood pressure change (mm/Hg)ED50", "value": "+1 mm/Hg"},
      {"measurement": "Heart rate increase (beats/min.)ED50", "value": 12, "unit": "beats/min."}
    ]}
  ]
}
